Measured values reported in patent publication US20230183640A1, “METABOLIC INHIBITORS WITH EFFICACY FOR INHIBITING SULFIDE PRODUCTION IN HARSH ENVIRONMENTS” (MC (US) 3 LLC, priority 2020, published 2023).

Legend:
[1] = system: sulfate reducing bacteria; assay: Efficacy in inhibiting H2S production from sulfate reducing bacteria; assay type: cell-based; settings: for efficacy for inhibiting hydrogen sulfide production: anaerobic conditions; for activity in reducing H2S production: Tables 6 and 7
Procedure: To understand the hydrogen sulfide inhibition efficacy of the N-hydroxycarboxamide compounds of the present invention, several compounds were tested. Some compounds that can be used in this H2S inhibiting composition are disclosed in Table 2. For the testing procedures, the compounds were dissolved in DMSO, resulting in a stock solution of about 8000-100000 ppm, which was subsequently diluted in 96-well plates or 10 mL serum vials containing media and selected culture to give varying concentrations from 0.09 to 1000 ppm of the compounds in final solution for efficacy testing.
Strains of commonly found bacteria were used for testing the efficacy of the compounds, viz. Desulfovibrio alaskensis, Desulfovibrio longus and Desulfovibrio gabonensis. Media for the cultures was also prepared by using a standard method. The cultures were aseptically used and incubated under anaerobic conditions. Two well established methods were used for testing various compounds:
The compounds C1, C12, C14, C15 and C16 were tested individually to understand each of their efficacies in inhibiting the H2S production from sulfate reducing bacteria, under standard temperature and pressure conditions. The efficacy of compounds C14 and C15 against hydrogen sulfide production are disclosed in Example 1, Tables 6 and 7.

[2] = system: Desulfovibrio alaskensis 14563; assay: H2S and Log (Growth) efficacy against SRB, 96-Well Plate Method; assay type: cell-based
Procedure: A lyophilized Desulfovibrio alaskensis 14563, Desulfovibrio longus 51456, and Desulfovibrio gabonensis 700201 pure cultures received from ATCC were resuspended individually in 500 ul of MB 1250. Aseptically, the content was transferred to a 5-mL tube of MB1250 medium. The cultures were incubated in an anaerobic chamber at 30° C. for 72 hrs. Subsequently, an individual stock culture with a final concentration of 25% glycerol were prepared by adding equal volumes of culture and 50% glycerol. 1 ml of the cultures were then transferred to 2-ml cryogenic vials and stored at −80° C. The purity of the stock cultures was evaluated through PCR, by amplifying the 16S rDNA region, and thus, it was verified that the original ATCC sample was a pure culture. 48-hour cultures of ATCC Desulfovibrio alaskensis 14563, Desulfovibrio longus 51456, and Desulfovibrio gabonensis 700201 were prepared in an anaerobic chamber. Each culture was prepared as a 1:10 culture by taking 1 milliliter (mL) of a pure culture and inoculating 9 milliliters (mL) of fresh MB1250 media. The Desulfovibrio alaskensis 14563 and Desulfovibrio gabonensis 700201 were all grown at 30° C. and the Desulfovibrio longus 51456 culture was grown at 35° C.
After the 48-hour incubation, 600 microliters (μL) were taken from each culture and optical density (OD) was measured using a Thermofisher Spectronic 200 Spectrophotometer at 600 nm. Each culture was diluted to 0.05 OD600 in fresh MB1250 media and added to the 96 well plates. Edge wells were not used due to their inherent variability and evaporation of the media. Each of the components were added at their respective concentrations for a final volume of 500 μL per well. In Table 3, 6 and 7, the concentrations of the compound used for the experiments are listed. Each experiment was done with at least three replicates for different treatments and non-treatment controls. […] Plates were then sealed with a titer-top and placed into anaerobic boxes and incubated in an anaerobic incubator at 30° C.
At each time point, sulfide samples were taken, and enumeration plates were made. Enumeration plates were made to determine the log growth in each dosed sample. For this process, enumeration plates were prepared by adding 180 μL fresh media MB1250 containing 0.01 wt % ferrous ammonium sulfate. 20 μL was taken from each well of the challenge plates and transferred to the enumeration plates using a 20-200 μL multichannel pipette. Enumeration plates were mixed three times using the multichannel pipette and serial diluted down the plate tenfold (20 μL into 180 μL). This serial dilution process was repeated for all challenge plate rows giving a total of 6 enumeration plates.
After 7 days these enumeration plates were read. The ferrous ammonium sulfate in each plate would be converted to iron sulfide, changing wells with SRB growth from clear to black. By counting the number of black wells in a row, the log growth from the original well in the challenge plate can be determined.
To determine hydrogen sulfide production in each sample, sulfide samples were also taken from each challenge plate. From each well, 9 μL were taken and added to 60 μL of 2% zinc acetate with 0.02% acetic acid. Then, 180 μL of milliQ water was added. 60 μL of stock solution 1 containing 64% sulfuric acid, <1% Dimethyl-4-phenylenediamine (DMPD), water to 100% was added to each well on the plates. This was followed by 3 μL of stock solution 3 containing 50% Iron (III) chloride. All chemicals are ordered from Fisher Scientific and used as received. These were mixed three times and read after 15 minutes. The plates were read at 670 nm using a Biotek microplate reader. Absorbance readings were converted to mM using a standard curve and this was converted to parts per million using the molar mass of sulfur. The standard curves were made using sodium sulfide nonahydrate solutions to give final solutions of 0, 0.125, 0.25 0.5, 1.0, and 1.5 ppm.

## O=C(CCCN1C(=O)c2cccc3cccc(c23)C1=O)NO [C12]
[1]
  efficacy for inhibiting hydrogen sulfide production: high efficacy
[2]; Table 6 run, 2 days, 7.615 PPM
  H2S: 77.6 PPM
  Log (Growth): 7
[2]; Table 6 run, 2 days, 15.75 PPM
  H2S: 115.3 PPM
  Log (Growth): 7.5
[2]; Table 6 run, 2 days, 31.25 PPM
  H2S: 90.1 PPM
  Log (Growth): 7.0
[2]; Table 6 run, 2 days, 125 PPM
  H2S: 91.4 PPM
  Log (Growth): 7.0
[2]; Table 6 run, 2 days, 500 PPM
  H2S: 8.7 PPM
  Log (Growth): 0.0
[2]; Table 6 run, 2 days, 1000 PPM
  H2S: 5.4 PPM
  Log (Growth): 0.0
[2]; Table 6 run, 5 days, 7.615 PPM
  H2S: 17.5 PPM
  Log (Growth): 8.0
[2]; Table 6 run, 5 days, 15.75 PPM
  H2S: 26.7 PPM
  Log (Growth): 8.0
[2]; Table 6 run, 5 days, 31.25 PPM
  H2S: 42.5 PPM
  Log (Growth): 7.0
[2]; Table 6 run, 5 days, 125 PPM
  H2S: 21.3 PPM
  Log (Growth): 3.0
[2]; Table 6 run, 5 days, 500 PPM
  H2S: 6.1 PPM
  Log (Growth): 0.0
[2]; Table 6 run, 5 days, 1000 PPM
  H2S: 4.8 PPM
  Log (Growth): 0.0
[2]; Table 7 run, 2 days, 7.615 PPM
  H2S: 67.5 PPM
  Log (Growth): 8.0
[2]; Table 7 run, 2 days, 15.75 PPM
  H2S: 43.7 PPM
  Log (Growth): 7.3
[2]; Table 7 run, 2 days, 31.25 PPM
  H2S: 18.2 PPM
  Log (Growth): 7.5
[2]; Table 7 run, 2 days, 125 PPM
  H2S: 12.2 PPM
  Log (Growth): 5.0
[2]; Table 7 run, 2 days, 500 PPM
  H2S: 2.2 PPM
  Log (Growth): 3.0
[2]; Table 7 run, 2 days, 1000 PPM
  H2S: 1.8 PPM
  Log (Growth): 2.5
[2]; Table 7 run, 5 days, 7.615 PPM
  H2S: 30.6 PPM
  Log (Growth): 7.3
[2]; Table 7 run, 5 days, 15.75 PPM
  H2S: 34.4 PPM
  Log (Growth): 6.7
[2]; Table 7 run, 5 days, 31.25 PPM
  H2S: 15.1 PPM
  Log (Growth): 5.5
[2]; Table 7 run, 5 days, 125 PPM
  H2S: 6.2 PPM
  Log (Growth): 5.0
[2]; Table 7 run, 5 days, 500 PPM
  H2S: 1.9 PPM
  Log (Growth): 0.0
[2]; Table 7 run, 5 days, 1000 PPM
  H2S: 2.0 PPM
  Log (Growth): 0.0

## O=C(CCCCCCC(=O)NO)NO [C14]
[1]
  activity in reducing H2S production: did not show significant activity
[2]; Table 6 run, 2 days, 7.615 PPM
  H2S: 71.3 PPM
  Log (Growth): 7.0
[2]; Table 6 run, 2 days, 15.75 PPM
  H2S: 56.4 PPM
  Log (Growth): 8.0
[2]; Table 6 run, 2 days, 31.25 PPM
  H2S: 56.3 PPM
  Log (Growth): 7.3
[2]; Table 6 run, 2 days, 125 PPM
  H2S: 131.9 PPM
  Log (Growth): 8.0
[2]; Table 6 run, 2 days, 500 PPM
  H2S: 54.6 PPM
  Log (Growth): 7.7
[2]; Table 6 run, 2 days, 1000 PPM
  H2S: 117.5 PPM
  Log (Growth): 7.7
[2]; Table 6 run, 5 days, 7.615 PPM
  H2S: 45.6 PPM
  Log (Growth): 7.3
[2]; Table 6 run, 5 days, 15.75 PPM
  H2S: 34.7 PPM
  Log (Growth): 7.3
[2]; Table 6 run, 5 days, 31.25 PPM
  H2S: 29.0 PPM
  Log (Growth): 7.3
[2]; Table 6 run, 5 days, 125 PPM
  H2S: 45.0 PPM
  Log (Growth): 7.3
[2]; Table 6 run, 5 days, 500 PPM
  H2S: 42.2 PPM
  Log (Growth): 7.0
[2]; Table 6 run, 5 days, 1000 PPM
  H2S: 38.6 PPM
  Log (Growth): 8.0

## CCCCCCCC(=O)NO [C16]
[1]
  efficacy for inhibiting hydrogen sulfide production: high efficacy
[2]; Table 7 run, 2 days, 7.615 PPM
  H2S: 83.5 PPM
  Log (Growth): 7.7
[2]; Table 7 run, 2 days, 15.75 PPM
  H2S: 76.9 PPM
  Log (Growth): 7.7
[2]; Table 7 run, 2 days, 31.25 PPM
  H2S: 35.1 PPM
  Log (Growth): 7.3
[2]; Table 7 run, 2 days, 125 PPM
  H2S: 13.3 PPM
  Log (Growth): 6.3
[2]; Table 7 run, 2 days, 500 PPM
  H2S: 2.7 PPM
  Log (Growth): 5.3
[2]; Table 7 run, 2 days, 1000 PPM
  H2S: 2.2 PPM
  Log (Growth): 3.0
[2]; Table 7 run, 5 days, 7.615 PPM
  H2S: 27.7 PPM
  Log (Growth): 7.3
[2]; Table 7 run, 5 days, 15.75 PPM
  H2S: 29.2 PPM
  Log (Growth): 7.0
[2]; Table 7 run, 5 days, 31.25 PPM
  H2S: 22.1 PPM
  Log (Growth): 7.3
[2]; Table 7 run, 5 days, 125 PPM
  H2S: 6.9 PPM
  Log (Growth): 5.0
[2]; Table 7 run, 5 days, 500 PPM
  H2S: 2.1 PPM
  Log (Growth): 4.3
[2]; Table 7 run, 5 days, 1000 PPM
  H2S: 2.0 PPM
  Log (Growth): 0.0

## O=C(NO)c1ccccc1 [C15]
[1]
  activity in reducing H2S production: did not show significant activity
[2]; Table 6 run, 2 days, 7.615 PPM
  H2S: 103.6 PPM
  Log (Growth): 7.7
[2]; Table 6 run, 2 days, 15.75 PPM
  H2S: 54.7 PPM
  Log (Growth): 7.7
[2]; Table 6 run, 2 days, 31.25 PPM
  H2S: 54.4 PPM
  Log (Growth): 7.0
[2]; Table 6 run, 2 days, 125 PPM
  H2S: 130.2 PPM
  Log (Growth): 7.3
[2]; Table 6 run, 2 days, 500 PPM
  H2S: 155.7 PPM
  Log (Growth): 7.3
[2]; Table 6 run, 2 days, 1000 PPM
  H2S: 130.7 PPM
  Log (Growth): 8.0
[2]; Table 6 run, 5 days, 7.615 PPM
  H2S: 35.2 PPM
  Log (Growth): 8.0
[2]; Table 6 run, 5 days, 15.75 PPM
  H2S: 42.7 PPM
  Log (Growth): 7.3
[2]; Table 6 run, 5 days, 31.25 PPM
  H2S: 26.3 PPM
  Log (Growth): 7.7
[2]; Table 6 run, 5 days, 125 PPM
  H2S: 55.5 PPM
  Log (Growth): 7.0
[2]; Table 6 run, 5 days, 500 PPM
  H2S: 31.8 PPM
  Log (Growth): 7.0
[2]; Table 6 run, 5 days, 1000 PPM
  H2S: 73.3 PPM
  Log (Growth): 8.0
